Measurements from patent US20230398125A1, “TREATING HEPATITIS” (Albireo AB, priority 2022, published 2023).

Assays:
Assay type in all cases: cell-based
Settings in all cases: 3H-taurocholic acid transport
Human NTCP = biological target: T1, Human NTCP (Homo sapiens, UniProt Q14973); experiment: 3H-taurocholic acid uptake in human NTCP-overexpressing cells
T1 construct: expressed in transfected cells; peptide purchased from Pharmaron
T1 sequence (Q14973 1-349): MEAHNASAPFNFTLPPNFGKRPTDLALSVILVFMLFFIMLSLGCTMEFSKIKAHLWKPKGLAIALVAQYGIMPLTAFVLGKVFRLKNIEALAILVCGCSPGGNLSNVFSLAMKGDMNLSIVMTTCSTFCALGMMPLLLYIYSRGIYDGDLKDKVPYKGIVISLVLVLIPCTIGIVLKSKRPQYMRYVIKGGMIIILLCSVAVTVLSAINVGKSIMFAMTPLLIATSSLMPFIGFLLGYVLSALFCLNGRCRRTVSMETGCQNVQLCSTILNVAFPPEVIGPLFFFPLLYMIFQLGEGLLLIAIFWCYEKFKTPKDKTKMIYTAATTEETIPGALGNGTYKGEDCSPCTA
Method: (§1) 20,000 cells (Human & Mouse NTCP-overexpressing cells) were seeded in 96-well plate in 100 μL MEM-alpha medium supplemented with 10% FBS containing geneticin (1 mg/mL) and incubated at 37° C. in 5% CO2 for 24 hrs. After incubation, media was decanted from the wells and cells were washed two times with 250 μL of basal MEM-alpha medium (FBS-free). After each wash, plates were tapped against a paper towel to ensure maximum removal of residual media. For Human NTCP (hNTCP), incubation mix was prepared by adding test inhibitor dilutions (3-fold serial dilution in DMSO, 10 concentrations) in MEM-alpha (without FBS) containing 0.3 μM ^3H-taurocholic acid and 7.5 μM cold taurocholic acid (maintaining 0.2% final DMSO concentration). […]
(§2) The plates were tapped against a paper towel after every wash to ensure maximum removal of blocking buffer. 100 μL of MicroScint-20 was added to the wells and kept overnight at room temperature before reading the plates in MicroBeta2 liquid Scintillation Counter from PerkinElmer under 3H Test for I/L-BAT protocol (set at 120 seconds reading time per well, with normal plate orientation).
(§3) Percentage inhibitions were calculated with respect to the assay controls. […]

Mouse NTCP = biological target: T2, Mouse NTCP (Mus musculus, UniProt O08705); experiment: 3H-taurocholic acid uptake in mouse NTCP-overexpressing cells
T2 construct: expressed in transfected cells; kept under geneticin selection
T2 sequence (O08705 1-362): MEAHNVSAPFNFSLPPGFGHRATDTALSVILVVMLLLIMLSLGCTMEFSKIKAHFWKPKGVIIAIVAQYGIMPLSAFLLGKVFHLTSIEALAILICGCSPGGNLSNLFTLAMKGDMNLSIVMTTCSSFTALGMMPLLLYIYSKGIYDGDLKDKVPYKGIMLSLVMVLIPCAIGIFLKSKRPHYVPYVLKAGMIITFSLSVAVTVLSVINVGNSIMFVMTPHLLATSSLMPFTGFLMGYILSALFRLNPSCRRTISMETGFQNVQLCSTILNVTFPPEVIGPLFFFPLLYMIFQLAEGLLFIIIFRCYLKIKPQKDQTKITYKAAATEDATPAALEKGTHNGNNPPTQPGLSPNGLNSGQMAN
Method: as §1, §2, §3

Human IBAT = biological target: T3, Human IBAT (Homo sapiens, UniProt Q12908); experiment: 3H-taurocholic acid uptake in human IBAT-overexpressing cells
T3 construct: expressed in transfected cells; kept under puromycin selection
T3 sequence (Q12908 1-348): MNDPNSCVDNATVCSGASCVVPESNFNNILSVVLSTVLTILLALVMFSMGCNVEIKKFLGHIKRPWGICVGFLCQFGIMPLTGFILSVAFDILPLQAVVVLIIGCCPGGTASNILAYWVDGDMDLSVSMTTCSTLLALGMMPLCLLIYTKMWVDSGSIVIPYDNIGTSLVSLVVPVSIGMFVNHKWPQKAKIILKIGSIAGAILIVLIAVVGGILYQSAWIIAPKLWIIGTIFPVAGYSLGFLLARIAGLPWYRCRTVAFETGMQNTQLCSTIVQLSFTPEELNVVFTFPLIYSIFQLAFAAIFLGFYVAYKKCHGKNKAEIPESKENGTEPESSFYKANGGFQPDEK
Method: 10,000 cells (Human & Mouse IBAT-overexpressing cells) were seeded in 96-wells plate in 100 μL MEM-alpha medium supplemented with 10% FBS containing puromycin (10 μg/mL) and incubated at 37° C. in 5% CO2 for 48 hrs. After incubation media was decanted from the wells, cells were washed two times with 250 μL of basal MEM-alpha medium (FBS-free). After each wash, plates were tapped against paper towel to ensure maximum removal of residual media. Test inhibitor dilutions (highest test concentration being 10 μM, 3-fold serial dilution, 10 concentrations) prepared in DMSO were added to the incubation mix (maintaining 0.2% final DMSO concentration) containing 0.25 μM ^3H-taurocholic acid and 5 μM of cold taurocholic acid. […]
After incubation, the reaction was stopped by keeping the plates on ice water mix for 2-3 minutes and then the incubation mix was aspirated completely from the wells. […] 100 μL of MicroScint-20 was added to the wells and kept overnight at room temperature before reading the plates in MicroBeta2 liquid Scintillation Counter from PerkinElmer under ^3H Test for I/L-BAT protocol (set at 120 seconds reading time per well, with normal plate orientation).
as §3

Structure (SMILES): CCCCC1CN(c2ccccc2)c2cc(SC)c(O/C=C(\F)C(=O)O)cc2S(=O)(=O)N1C (stereo not drawn) [Compound 1, (Z)-3-((3-butyl-2-methyl-7-(methylthio)-1,1-dioxido-5-phenyl-2,3,4,5-tetrahydro-1,2,5-benzothiadiazepin-8-yl)oxy)-2-fluoroacrylic acid]
- IC50 (Human NTCP): 0.53 ± 0.081 nM
- IC50 (Mouse NTCP): 1.82 ± 0.25 nM
- IC50 (Human IBAT): 535 ± 83.3 nM
